For series [1], the system named is Aldo-keto reductase family 1, member C2 (AKR1C2). Briefly: Western Blot quantification of AKR1C2 in keratinocyte cell extracts. The series is classed as cell-based. The note with it: primary human keratinocytes, 24 h exposure, FIG. 4. As to the method: (§1) Primary human keratinocytes were obtained from Provitro (Berlin, Germany). Cells were seeded at 3×10E5 cells per 10 cm dish. Cells were grown in serum free supplemented keratinocyte growth medium (Provitro) to 80-90% density prior to treatment. Cells were grown at 37° C. in 5% CO2. Second and third passages post-cryopreserved seedings were used for experiments
(§2) Test chemicals were added and the plates were incubated for 24 hours at 37° C. in a 5% CO2 humidified incubator. When a chemical was dissolved in DMSO, a final concentration of 0.1% DMSO was used in the relevant negative control. After 24 h incubation, cells were harvested and washed twice in PBS.
Cells were lysed in four volumes of 100 mM TEAB (triethylammonium bicarbonate), pH 8.5+0.1, 1 mM TCEP (tris[2-carboxyethyl]phosphine*HCl), 0.1% SDS. After suspending the cell pellet in lysis buffer the suspension was heated at 95° C. for ten minutes in a thermomixer ([Eppendorf, Thermomixer comfort). […]
(§3) As an alternative approach to find predictive markers for sensitizing potential we measured the concentration of biomarkers using commercially available immunoassays to measure the levels of three biomarkers. The three proteins to be measured by Western Blot or ELISA were selected on the basis of a review of literature references to biomarkers of stress toxicity pathways. […]

The conditions of series [2]: mouse, in vivo; cited from earlier work.
Series [3] concerns Heat shock 70 kDa protein 1 (HSP70, HSPA1A; HSPA1B). As to the kind of experiment: HSP70-specific ELISA of keratinocyte cell extracts. It counts as cell-based. Particulars: primary human keratinocytes, 24 h exposure, FIG. 3. (In general: ELISA stands for enzyme-linked immunosorbent assay.)
In a further series the test system is Nrf2 pathway. Particulars: cited from earlier work.
In series [4] the test system is Primary human keratinocytes. Briefly: TMT proteomic profiling of exposed keratinocytes, PLS score plot of 102 protein biomarkers. The note with it: second study, four donors, FIG. 2. It counts as cell-based.
For series [5], the system named is Metallothionein-1G (MT1G). Briefly: Western Blot quantification of MT1G in keratinocyte cell extracts. It counts as cell-based. The note with it: primary human keratinocytes, 24 h exposure, FIG. 5. As to the method:
as §1, §2
Cells were lysed in four volumes of 100 mM TEAB (triethylammonium bicarbonate), pH 8.5+0.1, 1 mM TCEP (tris[2-carboxyethyl]phosphine*HCl), 0.1% SDS. […]
as §3
. […] Effects of contact sensitizers and irritants on MT1G production was determined by Western Blot analysis using MT1G specific antibodies (clone UC1MT, Biozol, Eching, Germany). […]

Series [6] deals with luciferase gene under the control of the ARE of the AKR1C2 gene in HaCaT keratinocytes. Particulars: screen of 43 sensitizers and 24 non-sensitizers; cited from earlier work.

`O=CC=Cc1ccccc1` [CA, 3-phenyl-2-Propenal]: in series [1], the “AKR1C2 induction (Western Blot)” value is “only induced in CA exposed samples”. Moreover, in series [2], the “LLNA EC3 (%)” value is listed as 2.8% and the “LLNA outcome / sensitizer potency class” value was “(moderate)”. Moreover, the “HSP70 induction (ELISA)” value in series [3] is on record as “most strongly induced”.
Regarding `O=[N+]([O-])c1ccc(Cl)c([N+](=O)[O-])c1` [DNCB, 1-chloro-2,4-dinitrobenzene], the “HSP70 induction (ELISA)” value in series [3] is given as “small”. The “reactivity of BDKs, NEHKs and THP-1 (Nrf2 pathway)” value in the series on Nrf2 pathway is listed as “high reactivity”.
Turning to `CN(C)C(=S)SSC(=S)N(C)C` [TMTD, Tetramethyl thiuram disulfide], the “relative distance from the centre of the PLS score plot (size of response)” value in series [4] was “smaller distance to the centre of the plot”. In addition, in series [2], the “LLNA EC3 (%)” value is listed as 5.2% and the “LLNA outcome / sensitizer potency class” value is given as “(moderate)”. Moreover, the “HSP70 induction (ELISA)” value in series [3] is listed as “most strongly induced”. In series [5], the “MT1G induction (Western Blot)” value is given as “most strongly induced”.
On to `O=C(Oc1ccccc1)c1ccccc1` [phenyl benzoate], for which the “KeratinoSens identification of sensitizer” value in series [6] is reported as “false negative”.

These data come from patent US20140242599A1, “MATERIALS AND METHODS FOR DETERMINING SENSITIVITY POTENTIAL OF COMPOUNDS” (ELECTROPHORETICS LIMITED, priority 2011, published 2014).
